Assays:
[1] = test system: palbociclib-resistant ER+BC PDX (ST1799) model; assay: Tumor growth inhibition in palbociclib-resistant PDX model; format: in vivo, mice; conditions: last day of 28-day dosing, Compound 101 6 mg/kg QD PO, fulvestrant 2.5 mg/kg weekly SC, palbociclib 50 mpk QD PO
Procedure: (§1) Tumor growth inhibition was evaluated in estrogen receptor-positive breast cancer (ER+BC) PDX models selected in vivo for resistance to the CDK4/6 inhibitor palbociclib (ST1799, n=1) or resistance to both palbociclib and fulvestrant (ST941, n=1). Dosing was initiated when tumors were 100-200 mm^3.

[2] = test system: palbociclib and fulvestrant double-resistant ER+BC PDX model (ST941); assay: Tumor growth inhibition in palbociclib and fulvestrant double-resistant PDX model; format: in vivo, mice; conditions: fulvestrant 2.5 mg/kg weekly SC
Procedure: as §1

[3] = test system: ST390 (modeling pancreatic ductal adenocarcinoma (PDAC)); assay: Tumor growth inhibition in PDAC PDX model; format: in vivo; conditions: 6 mg/kg QD PO, over ~28 days, dose well below the MTD
Procedure: In the PDAC model, Compound 101 was orally administered to tumor-bearing NOD/SCID mice at 6 mg/kg QD. […] The % regression was calculated as: (Mean TV Compound 101 @ EOT)/(Mean TV Compound 101 @ Day 0)×100. The same calculations were used for end of study (day 42).

[4] = test system: PDX models BR5010 (TNBC), LU5178 (SCLC), OV15398 (HGSOC); assay: Tumor growth inhibition in TNBC, SCLC and HGSOC PDX models (Example 10); format: in vivo, NOD/SCID mice
[5] = test system: 12 PDX models representing SCLC, TNBC and HGSOC; assay: TGI in 12 PDX models (Example 12); format: in vivo
Procedure: Dosing was initiated when tumors were 150-300 mm^3. […] TGI was calculated on the last day of dosing using the formula: TGI=(Vc1−Vt1)/(Vc0−Vt0), where Vc1 and Vt1 are the mean volumes of control and treated groups at the time of tumor extraction, while Vc0 and Vt0 are the same groups at the start of dosing.

[6] = test system: CRC cell line RKO (BRAF p.V600E mutant); assay: In vitro combination study, CellTiter-Glo viability, CalcuSyn; format: cell-based; conditions: 5 days
From the text: (§2) Combination effect is reflected by shift in IC50 of Compound 101 with addition of carboplatin or oxaliplatin or increased antiproliferative effect with lower amounts of either single agent. This is visualized in the isobolograms of FIG. 5, where points below the diagonal line reflect synergy.

[7] = test system: SCLC cell line (NCI-H1048); assay: as above; format: cell-based; conditions: 5 days; median effect principle (Chou-Talalay)
From the text: as §2

[8] = test system: CRC cell line SW480 (KRAS p.G12V mutant); assay: as above; format: cell-based; conditions: 5 days
[9] = test system: HR+ breast cancer cell line MCF7 (PIK3CA p.E545K); assay: as above; format: cell-based; conditions: 5 days
[10] = test system: HR+ breast cancer cell line T47D (PIK3CA p.H1047R); assay: as above; format: cell-based; conditions: 5 days

Structure (SMILES)	Tumor growth inhibition (TGI) [1] [%]	Tumor growth inhibition (TGI) ([2]; last day of 28-day dosing, Compound 101 6 mg/kg QD PO) [%]	TGI [3] [%]	transcriptional responses in xenograft tissue ([4]; after dosing)	TGI, in words ([4]; oral, 21 days, TNBC 10 mg/kg QD or 5 mg/kg BID, SCLC and HGSOC 3 mg/kg BID, followed 21 days after treatment)	tolerability / body weight loss ([5]; all once-daily doses tested, tumor-bearing mice)	TGI of deep responses ([5]; subset of models (58%, 7/12), TGI or regression) [%]	MTD ([5]; tumor-bearing mice)	combination effect with oxaliplatin ([6]; median effect principle (Chou-Talalay))	combination effect with trametinib ([6]; BRAF p.V600E mutant CRC)	combination effect with carboplatin [7]	combination effect with gemcitabine [7]	combination effect with trametinib [8]	combination effect with capecitabine ([9]; HR+ MCF-7 cells)	combination effect with alpelisib ([9]; PIK3CA p.E545K)	combination effect with alpelisib [10]	activity (tumor growth inhibition), in words ([2]; palbociclib 50 mpk QD PO)
CC1(C)CC[C@H](Nc2ncc(C(F)(F)F)c(-c3c[nH]c4c(P(C)(C)=O)c(C#N)ccc34)n2)CN1 [Compound 101, (S)-7-(dimethylphosphoryl)-3-(2-((6,6-dimethylpiperidin-3-yl)amino)-5-(trifluoromethyl)pyrimidin-4-yl)-1H-indole-6-carbonitrile]	83	33	100	Dose-dependent transcriptional responses in xenograft tissue were observed within 4 hours of dosing and were sustained for 24 hours	deep and sustained TGI, including regressions	well tolerated, with no evident body weight loss	> 95	above 10 mg/kg once daily	showed synergy and was superior to either agent alone	significant synergy	showed synergy and was superior to either agent alone	showed synergy and was superior to either agent alone	significant synergy	showed synergy and was superior to either agent alone	significant synergy	significant synergy	
C[C@]12CC[C@@H]3c4ccc(O)cc4C[C@@H](CCCCCCCCC[S+]([O-])CCCC(F)(F)C(F)(F)F)[C@H]3[C@@H]1CC[C@@H]2O (some centres unmarked) [fulvestrant, reference compound]																	no activity
